Where “and” joins values, the source holds several entries; their conditions need not be identical. Equal values may be shown once.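 1) Cells in 96-well plates. 2) Compound, 48 h, 5 concentrations. 3) Linear interpolation between surrounding doses. 4) Unreached endpoint = highest concentration. GI50: concentration for 50% inhibition of growth. At the TGI there is no net growth.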
Legend:
Test in all cases: NCI tumour cell line growth inhibition, 48 h
SNB-78 CNS = tested on: SNB-78 CNS
M19-MEL melanoma = tested on: M19-MEL melanoma
DMS 273 small cell lung = tested on: DMS 273 small cell lung
LXFL 529 NSCLC = tested on: LXFL 529 NSCLC
XF 498 CNS = tested on: XF 498 CNS
DMS 114 small cell lung = tested on: DMS 114 small cell lung
HOP-18 NSCLC = tested on: HOP-18 NSCLC
RXF-631 renal = tested on: RXF-631 renal
MDA-N = tested on: MDA-N
P388 leukemia = tested on: P388 leukemia
SN12K1 renal = tested on: SN12K1 renal
P388/ADR leukemia = tested on: P388/ADR leukemia

SMILES	TGI (SNB-78 CNS)	TGI (M19-MEL melanoma)	TGI (DMS 273 small cell lung)	TGI (LXFL 529 NSCLC)	TGI (XF 498 CNS)	TGI (DMS 114 small cell lung)	TGI (HOP-18 NSCLC) [µM]	TGI (RXF-631 renal) [µM]	TGI (MDA-N)	further results
NC(=S)N1N=C2CCCCCC[C@@H]2[C@H]1c1ccccc1	> 100 µM	> 100 µM	> 100 µM	> 100 µM	76.5 µM	> 100 µM	–	–	–	–
O=C1CCCCCCC2=C1C(Sc1ccccc1)CC2 (stereo unspecified)	> 100 µM	> 100 µM	61.7 µM	> 100 µM	–	76.4 µM	> 100	–	–	–
CCC[CH2][Sn](=[O])[CH2]CCC	> 50 µM	> 50 µM	> 50 µM	> 50 µM	–	> 50 µM	> 50	–	–	GI50 (SNB-78 CNS): > 50 µM; GI50 (M19-MEL melanoma): > 50 µM; GI50 (HOP-18 NSCLC): > 50 µM; GI50 (DMS 273 small cell lung): > 50 µM; GI50 (LXFL 529 NSCLC): > 50 µM; GI50 (DMS 114 small cell lung): > 50 µM
CC(C)(C)C1=CC(=N/N=c2\scc(-c3ccccc3)n2-c2ccccc2)C=C(C(C)(C)C)C1=O	> 100 µM	> 100 µM	> 100 µM	> 100 µM	> 100 µM	> 100 µM	> 100	–	–	–
CC(=O)OCc1c(O)c2c([nH]c1=O)CCc1ccccc1-2	–	108 µM	159 µM	111 µM	104 µM	155 µM	295	149	–	–
O=C(O)/C=C/c1ccc(Oc2ccccc2C(=O)O)o1	–	–	–	–	–	–	–	–	> 10 µM	–
CCN(CC)CCN(CC)CC.CCN(CC)CCN(CC)CC.[Cu+2].[Cu+2].[O-][Cl+3]([O-])([O-])[O-].[OH3+].[OH3+]	> 100 µM	53.7 µM	> 100 µM	> 100 µM	–	32.6 µM	> 100	–	–	GI50 (SNB-78 CNS): > 100 µM; GI50 (M19-MEL melanoma): 24.2 µM; GI50 (HOP-18 NSCLC): > 100 µM; GI50 (DMS 273 small cell lung): 22 µM; GI50 (LXFL 529 NSCLC): > 100 µM; GI50 (DMS 114 small cell lung): 16.6 µM
COc1ccc(NC(=O)Oc2ccc3c(C)cc(=O)oc3c2)c(OC)c1 (tested in a mixture with another compound)	–	–	–	–	–	–	–	–	> 100 µM	–
NC(=O)CC1OC(=O)Cc2cc3c(c(O)c21)C(=O)c1c(O)cccc1C3=O (stereo unspecified)	–	–	–	–	–	–	–	–	> 100 µM	–
CCOC(=O)C1(C(=O)OCC)C(C(C)(C)C)=C(C)c2ccccc21	–	38.8 µM	25.5 µM	24.5 µM	26.3 µM	26.5 µM	70.2	37.9	–	–
Cc1ccc(OP(=O)(Oc2ccc(C)cc2)N2C=Cc3ccccc3C2C#N)cc1 (stereo unspecified)	–	–	–	–	–	–	–	–	> 100 µM	–
O=C(C[n+]1ccccc1)N/N=C(/CCC(=O)N(Cc1ccccc1)Cc1ccccc1)CC(=O)c1ccccc1	> 100 µM	> 100 µM	> 100 µM	> 100 µM	–	> 100 µM	> 100	> 100	–	–
CC(=O)OC12C(C)=C(C)C(=O)N1c1ccccc1N2C(C)=O (stereo unspecified)	> 100 µM	> 100 µM	> 100 µM	> 100 µM	> 100 µM	–	> 100	–	–	–
OC1CC2CCC(C1)N2CCCN1c2ccccc2Sc2ccc(Cl)cc21 (stereo unspecified)	–	–	–	–	–	–	–	–	3.62 µM	–
NC(=O)c1cc(N2CC2)c([N+](=O)[O-])cc1[N+](=O)[O-]	–	–	–	–	–	–	–	–	> 200 µM	–
O=C(O)Cc1cccc2c(=O)cc(-c3ccccc3)oc12	> 250 µM	> 250 µM	> 250 µM	–	89.7 µM	250 µM	250	–	250 µM and > 893 µM	TGI (P388 leukemia): 250 µM; TGI (SN12K1 renal): > 250 µM; GI50 (MDA-N): 176 µM; TGI (P388/ADR leukemia): 150 µM
CN(C)c1ccc(/C=c2\sc3nnc(-c4ccco4)n3c2=O)cc1	> 100 µM	> 100 µM	> 100 µM	> 100 µM	> 100 µM	> 100 µM	> 100	> 100	–	–
O=C1c2ccccc2-c2c3c(cc4ccnc1c24)OCO3	66.1 µM and > 100 µM	86.7 µM and 12.9 µM	29.4 µM and 19.2 µM	51.5 µM and > 100 µM	21.1 µM and 22.1 µM	> 100 µM and 32.4 µM	> 100	–	–	GI50 (SNB-78 CNS): 14.9 µM and 6.03 µM; GI50 (DMS 114 small cell lung): 10.1 µM and 4.87 µM
COc1ccc(/C=C/c2cc(OC)c(OC(C)=O)c(OC)c2)cc1	76.1 µM	> 100 µM	> 100 µM	> 100 µM	> 100 µM	84.7 µM	–	> 100	–	–
Cc1ccc(NCC2(/N=C/c3ccccc3)OC(CO)C(O)C2O)cc1 (stereo unspecified)	–	–	> 100 µM	> 100 µM	> 100 µM	> 100 µM	–	–	–	–
CSC(=O)C[C@@]12O[C@@H]([C@@H](C)C3CCC4[C@@H]5C(O)CC6=CC(=O)C=C[C@]6(C)C5CC[C@@]43C)C[C@](C)(O1)C(C)(C)O2 (stereo partly specified)	37.6 µM	8.4 µM	35.9 µM	26.4 µM	28.8 µM	39.9 µM	–	54.9	–	–
O=C1Nc2c(Cl)cc(Cl)cc2/C1=N/N=C/c1ccco1	–	–	–	–	–	–	–	–	55.3 µM	–

SMILES	TGI (SNB-78 CNS)	TGI (M19-MEL melanoma)	TGI (DMS 273 small cell lung)	TGI (LXFL 529 NSCLC)	TGI (XF 498 CNS)	TGI (DMS 114 small cell lung)	TGI (HOP-18 NSCLC) [µM]	TGI (RXF-631 renal) [µM]	TGI (MDA-N)	further results
O=C1C2CCN(CC2)C1CN1CCOCC1 (stereo unspecified)	56.1 µM	26.2 µM	25.3 µM	3.88 µM	14.5 µM	–	15.8	31	20.1 µM	–
CN(C)CCNc1ccc2ncn3c4ccc(O)cc4c(=O)c1c23	21.4 µM	13.1 µM	12.4 µM	14.6 µM	17.1 µM	16.8 µM	49.6	–	15.1 µM	–
CCCCN(CC)C(=O)C(=O)Cc1nc2ccc(C(=O)c3ccccc3)cc2[nH]c1=O	> 100 µM	> 100 µM	> 100 µM	> 100 µM	–	> 100 µM	–	–	–	–
CC(C)(C)OC(=O)C1C(=O)NC(=O)CC1CC(OCc1ccccc1)C(OCc1ccccc1)C(COCc1ccccc1)OCc1ccccc1 (stereo unspecified)	–	–	–	–	–	–	–	–	> 100 µM	GI50 (MDA-N): > 100 µM and 34.2 µM
O=[N+]([O-])c1nccn1CC(O)c1ccccc1 (stereo unspecified)	–	–	> 100 µM	> 100 µM	> 100 µM	> 100 µM	> 100	–	–	–
O=C(c1c(F)c(F)c(F)c(F)c1F)c1c(F)c(F)c(F)c(F)c1F	–	–	–	–	–	–	–	–	3.11 µM	–
CC(Oc1ccc2c(-c3ccc(Cl)cc3)cc(=O)oc2c1)C(=O)O (stereo unspecified)	> 100 µM	–	–	> 100 µM	> 100 µM	–	> 100	> 100	–	–
C=CCC1(C(=O)OC)CCC/C(=N\O)C1 (stereo unspecified)	–	–	–	–	–	–	–	–	> 10 µM	–
O=S1(=O)c2ccccc2N(O)C2=NCCN21	> 100 µM	> 100 µM	> 100 µM	> 100 µM	–	> 100 µM	–	–	–	–
COC(=O)CCC(=O)Nc1ccc(Cl)cc1C	> 100 µM	> 100 µM	> 100 µM	> 100 µM	> 100 µM	> 100 µM	> 100	> 100	–	–
CCCCCCCCCCCCSC(=S)c1c(C)[nH]n(-c2ccccc2)c1=O	> 50 µM	–	–	> 50 µM	–	28.4 µM	> 50	> 50	–	–
CC(C)(C)C(=O)N1C(C(=O)O)Cc2ccccc2[C@@H]1Cc1ccccc1 (stereo partly specified)	> 100 µM	> 100 µM	> 100 µM	> 100 µM	> 100 µM	> 100 µM	> 100	> 100	–	–
COc1ccc(N2C(=O)C3CC(c4ccc(Br)cc4)c4c([nH]c5ccccc45)C3C2=O)cc1 (stereo unspecified)	36.3 µM	25.6 µM	18.2 µM	14.2 µM	32 µM	20.8 µM	24.8	–	–	–
[N-]=[N+]=NCN1C(=O)C2C3C=CC(C2C1=O)C1C2C(=O)N(CN=[N+]=[N-])C(=O)C2C31 (stereo unspecified)	–	–	–	–	–	–	–	–	> 100 µM	–
O=C1c2ccccc2C(=O)N1CCc1ncc(-c2ccccc2)[nH]1	–	–	–	–	–	–	–	–	> 100 µM	–
c1ccc(SC(Sc2ccccc2)=C2CCC2)cc1	> 100 µM	> 100 µM	> 100 µM	–	> 100 µM	> 100 µM	–	> 100	–	–
CCOC(=O)C12CCCC1(O)N(NC(=O)OC)C(C)=C2C(=O)OC (stereo unspecified)	> 100 µM	> 100 µM	> 100 µM	> 100 µM	> 100 µM	> 100 µM	> 100	> 100	–	–
O=C(O)c1cccc(S(=O)(=O)NCCO)c1	–	–	–	–	–	–	–	–	> 100 µM	–
O=C(CC1(O)C(=O)Nc2c(Cl)cc(Cl)cc21)c1ccccc1 (stereo unspecified)	> 100 µM	> 100 µM	> 100 µM	> 100 µM	> 100 µM	> 100 µM	–	> 100	–	–
COc1ccc(C(=O)C2CCC(C(=O)O)C2)cc1 (stereo unspecified)	> 100 µM	> 100 µM	> 100 µM	> 100 µM	–	> 100 µM	–	–	–	–
Nc1nc(=O)n(C2CCC(CO)O2)cc1F (stereo unspecified)	> 100 µM	–	> 100 µM	> 100 µM	–	> 100 µM	> 100	–	–	–
Cc1ccc(OCC2CO2)c(Br)c1 (stereo unspecified)	–	–	–	–	–	–	–	–	58.9 µM	–

Reference: PubChem BioAssay (NCI)
